Assay [1] concerns HT-29 (colorectal carcinoma). Put plainly: MTT cell viability assay, HT-29. Format: cell-based, Human. As to conditions: for IC50: 24 h of incubation, read-out: IC50 ± SD on HT-29. The procedure: (§1) Cell viability studies were determined by the MTT assay for complexes 1–8 toward MCF7 (breast adenocarcinoma), MDA-MB-231 (triple-negative breast adenocarcinoma), MG-63 (osteosarcoma), and HT-29 (colorectal carcinoma) after 24 h of incubation with new ruthenium compounds. Cisplatin was used as antitumor clinical reference. The three solid tumors selected for the cell viability study were chosen due to high incidence and the low efficacy of the current treatments. The two breast cancer cell lines used in this study represent two of the most relevant subtypes of breast cancer (MCF7: receptor-estrogen-positive breast cancer subtype; MDA-MB-231: triple-negative breast cancer subtype).
(§2) Human breast cancer cell lines (MCF-7 and MDA-MB-231), human bone cancer cell line (MG-63), and human colorectal cancer cell line (HT-29) were grown in Dulbecco’s modified Eagle’s medium (DMEM) containing 10% fetal bovine serum (FBS), 100 IU/mL penicillin, and 100 μg/mL streptomycin at 37 °C in 5% CO2 atmosphere. These cancer cell lines were grown in a […] until they reached 70–80% confluence. Then, the cells were subcultured using TrypLE TM. For experiments, cells were grown in multi-well plates. Dulbecco’s modified Eagle’s medium (DMEM) and TrypLE^TM were purchased from Gibco (Gaithersburg, MD, USA), and fetal bovine serum (FBS) was purchased from Internegocios (Argentina). After 24 h, the monolayers were washed with DMEM and incubated under different conditions according to the experiments. Tissue culture materials were purchased from Corning (Princeton, NJ, USA).
(§3) The 3-(4,5-dimethylthiazol-2-yl)-2,5-diphenyltetrazolium bromide (MTT) assay was performed according to Mosmann. Briefly, cells were seeded in a 96-well dish, allowed to attach for 24 h, and treated with different concentrations of complexes […] (2.5–100 µM) at 37 °C for 24 h. Afterward, the medium was changed and the cells were incubated with 0.5 mg/mL MTT under normal culture conditions for 3 h. Cell viability was marked by conversion of the tetrazolium salt MTT to a colored formazan by mitochondrial dehydrogenases. Color development was measured spectrophotometrically with a microplate reader multiskan FC (Thermo scientific) at 570 nm after cell lysis in DMSO (100 µL per well). Cell viability was plotted as the percentage of the control value.
(Tetrazolium dyes change colour on reduction, which living cells bring about.)

The test system of assay [2] is MCF7 (breast adenocarcinoma). Put plainly: MTT cell viability assay, MCF7. The format is cell-based, Human. The note with it: 24 h of incubation, read-out: IC50 ± SD on MCF7. The procedure:
as §1, §2, §3

A further assay concerns MG-63 (osteosarcoma). Kind of assay: MTT cell viability assay, MG-63. As to conditions: 24 h of incubation, read-out: IC50 ± SD on MG-63. The format is cell-based, Human. The procedure:
as §1, §2, §3

The subject of assay [3] is MDA-MB-231 (triple-negative breast adenocarcinoma). Kind of assay: MTT cell viability assay, MDA-MB-231. Format: cell-based, Human. As to conditions: for IC50: MTT, 24 h of incubation, read-out: IC50 ± SD on MDA-MB-231. The method, then:
as §1, §2, §3

The target of assay [4] is Glutathione S-transferase from horse liver (GST). Kind of assay: GST inhibition assay. Format: biochemical. The note with it: for Ki: Dixon plots, substrate 200, 400, 800 μM; for IC50 / GST IC50: substrate 1-chloro-2,4-dinitrobenzene, pH 6.5, 25 °C. The procedure: The activity of GST was measured according to the method described by Habig et al. (1974). Stock solutions of 1–8 (1 mg/mL) were prepared in 100% methanol (MeOH). Then, stock solutions of 1–8 and negative controls were added to the wells and progressively diluted in 100 mM sodium phosphate buffer (pH 6.5) at a final volume of 50 μL. 1-Chloro-2,4-dinitrobenzene (Sigma-Aldrich Co., St. Louis, MO, USA) was dissolved in EtOH to obtain a 50 mM solution, then diluted with 100 mM sodium phosphate buffer (pH 6.5) to a final concentration of 4 mM. This solution (50 μL) and solution of 2 mM reduced glutathione (100 μL), dissolved in the same buffer were added into the microtiter plate wells. Glutathione S-transferase from horse liver (GST; Sigma-Aldrich Co., St. Louis, MO, USA) was used as the source of enzyme and dissolved in 100 mM sodium phosphate buffer (pH 6.5). 50 μL of enzyme solution was added into wells to start the reaction. The final enzyme concentration was 0.044 U/mL. A blank reaction was performed with the appropriate dilution of MeOH. The reaction was followed spectrophotometrically at 340 nm and at 25 °C for 4 min using a Cytation 3 cell imaging multi-mode reader from BioTek (BioTek, Winooski, VT, USA). Each measurement was repeated at least three times. For determination of inhibitory constants (Ki), the kinetics were monitored using three different final substrate concentrations (200, 400, and 800 μM, respectively).

Assay [5] deals with MCF7, MDA-MB-231, MG-63, and HT-29 cell lines. Kind of assay: MTT cell viability assay, all cell lines tested. The note with it: 24 h, span over all cell lines, read-out: IC50 in all cancer cell lines tested. The format is cell-based, Human. The procedure:
as §1
Human breast cancer cell lines (MCF-7 and MDA-MB-231), human bone cancer cell line (MG-63), and human colorectal cancer cell line (HT-29) were grown in Dulbecco’s modified Eagle’s medium (DMEM) containing 10% fetal bovine serum (FBS), 100 IU/mL penicillin, and 100 μg/mL streptomycin at 37 °C in 5% CO2 atmosphere. These cancer cell lines were grown in a […] until they reached 70–80% confluence. […]
The 3-(4,5-dimethylthiazol-2-yl)-2,5-diphenyltetrazolium bromide (MTT) assay was performed according to Mosmann. […] Color development was measured spectrophotometrically with a microplate reader multiskan FC (Thermo scientific) at 570 nm after cell lysis in DMSO (100 µL per well). […]

Data on 8 compounds can be found in publication PMC10058425, “Exploring pta Alternatives in the Development of Ruthenium–Arene Anticancer Compounds” (Molecules, 2023).

Several values for one entry are separate records, joined by “and”; a condition that tells them apart may be missing. Identical values can stand only once.

`N.N.[Cl][Pt][Cl]` [Cisplatin, reference compound]: the IC50 (commonly the concentration that inhibits the measured activity by half) in assay [1] (MTT) turned out to be 180 ± 6 µM; in assay [2], 42 ± 3.2 µM; in the assay on MG-63 (osteosarcoma) it was 39 ± 1.8 µM; in assay [3], 131 ± 18 µM.

For the compound `Cc1ccc(C(C)C)cc1.[Cl-].[O-]n1ccccc1=S.[Ru+2]` [Compound 1, [(η^6-cymene)(Ru)(pyrithionato)Cl]], in assay [4], the Ki (commonly the dissociation constant of the complex between target and ligand, obtained from inhibition or displacement) stood at 0.75 µM. Moreover, the IC50 is 3.15 ± 2.5 µM in assay [4]; over 100 µM in assay [1] (MTT); over 100 µM in assay [2]; over 100 µM in the assay on MG-63 (osteosarcoma); over 100 µM in assay [3].

`C1N2CN3CN1CP(C2)C3.Cc1ccc(C(C)C)cc1.F[P-](F)(F)(F)(F)F.[O-]n1ccccc1=S.[Ru+2]` [Compound 2, [(η^6-cymene)(Ru)(pyrithionato)(pta)]PF6]: the “GST IC50” value in assay [4] is “/ (no inhibitory activity in tested concentration range (<125 µg/mL))”. Also, the IC50 (in assay [1] (MTT); in assay [2]; with MG-63 (osteosarcoma); in assay [3]) was over 100 µM in each case.

Turning to `CCO[P](OCC)(OCC)[Ru+]1[O]N2C=CC=CC2=[S]1.Cc1ccc(C(C)C)cc1.F[P-](F)(F)(F)(F)F` [Compound 4, [(η^6-p-cym)Ru(κ^2-O,S-C5H4NOS)(P(OEt)3)]PF6], the IC50 was 59.5 ± 0.9 µM in assay [4]; over 100 µM in assay [1] (MTT); 45 µM and 45.5 µM in assay [2]; over 100 µM in the assay on MG-63 (osteosarcoma); over 100 µM in assay [3].

For the compound `C1=CC2=[S][Ru+]([P](c3ccccc3)(c3ccccc3)c3ccccc3)[O]N2C=C1.Cc1ccc(C(C)C)cc1.F[P-](F)(F)(F)(F)F` [Compound 6, [(η^6-p-cym)Ru(κ^2-O,S-C5H4NOS)(PPh3)]PF6], the Ki in assay [4] was found to be 1.3 µM. Also, the IC50 was 11.8 ± 1.1 µM in assay [4]; 30.2 ± 1.4 µM in assay [1] (MTT); 21.2 ± 3.2 µM in assay [2]; 21.2 ± 1.7 µM in the assay on MG-63 (osteosarcoma); 10.8 ± 1 µM in assay [3]. Further, in assay [1] (versus cisplatin), the “IC50 fold lower than cisplatin on HT-29 cells” value is listed as “six-fold”. For the same compound, the “IC50 fold lower than cisplatin on MDA-MB-231 cells” value in assay [3] (versus cisplatin) is given as “twelve-fold”.

In assay [4], `C1=CC2=[S][Ru+]([P](Oc3ccccc3)(Oc3ccccc3)Oc3ccccc3)[O]N2C=C1.Cc1ccc(C(C)C)cc1.F[P-](F)(F)(F)(F)F` [Compound 7, [(η^6-p-cym)Ru(κ^2-O,S-C5H4NOS)(P(OPh)3)]PF6] registered a Ki of 3.67 µM. In addition, the IC50 was 2.88 ± 0.9 µM in assay [4]; over 100 µM in assay [1] (MTT); 33.7 ± 6.3 µM in assay [2]; 28.2 ± 2.5 µM with MG-63 (osteosarcoma); 18 ± 1.7 µM in assay [3]. In assay [1] (MTT, 24 h), the “anticancer effect on colorectal cancer cells” value is on record as “did not exert anticancer effect”.

In turn, `C1=CC2=[S][Ru+]([As](c3ccccc3)(c3ccccc3)c3ccccc3)[O]N2C=C1.Cc1ccc(C(C)C)cc1.F[P-](F)(F)(F)(F)F` [Compound 8, [(η^6-p-cym)Ru(κ^2-O,S-C5H4NOS)(AsPh3)]PF6] yielded a Ki in assay [4] of 0.74 µM. Further, the IC50 in assay [4] was 2.15 ± 0.4 µM; in assay [1] (MTT) it was 40.8 ± 8.5 µM; in assay [2], 35.3 ± 12.1 µM; in assay [5] it was 35 to 50 µM; in the assay with MG-63 (osteosarcoma), 50.3 ± 2.5 µM; in assay [3], 35.8 ± 11.4 µM.

In the case of “[(η^6-p-cym)Ru(κ^2-O,S-C5H4NOS)(cap)]PF6 [Compound 3]”, in assay [4], the “GST IC50” value is listed as “/ (no inhibitory activity in tested concentration range (<125 µg/mL))”. In addition, the IC50 (in assay [1] (MTT); in assay [2]; with MG-63 (osteosarcoma); in assay [3]) was over 100 µM in each case.
